T1: GAL4DmEcR-DEF (Drosophila melanogaster, UniProt P34021)
T1 construct: The D, E, and F domains from fruit fly Drosophila melanogaster EcR; expressed in transfected cells; host or cells: mouse NIH3T3 cells
T1 sequence (P34021 330-878): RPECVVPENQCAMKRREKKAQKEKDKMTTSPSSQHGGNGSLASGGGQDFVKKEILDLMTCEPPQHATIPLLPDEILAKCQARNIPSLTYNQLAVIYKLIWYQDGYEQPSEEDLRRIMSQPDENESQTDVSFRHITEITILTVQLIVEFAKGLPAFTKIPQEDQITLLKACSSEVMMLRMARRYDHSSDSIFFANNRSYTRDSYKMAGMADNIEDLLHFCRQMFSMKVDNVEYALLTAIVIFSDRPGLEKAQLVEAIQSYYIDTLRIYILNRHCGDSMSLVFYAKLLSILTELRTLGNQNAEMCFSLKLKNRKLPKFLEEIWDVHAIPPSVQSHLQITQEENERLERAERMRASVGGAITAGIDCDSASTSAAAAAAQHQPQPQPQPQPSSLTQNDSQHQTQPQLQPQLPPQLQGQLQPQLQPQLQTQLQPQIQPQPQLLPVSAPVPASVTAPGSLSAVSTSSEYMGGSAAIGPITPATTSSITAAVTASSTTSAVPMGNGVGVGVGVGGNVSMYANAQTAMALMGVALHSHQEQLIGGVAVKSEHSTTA

B1: MmRXRα-LmUSP chimera: chimeric RXR LBD: helices 1-7 of MmRXRα-EF and helices 8-12 of LmUSP-EF (SEQ ID NO: 45), fused to VP16 (protein)
chain: MGPKKKRKVAPPTDVSLGDELHLDGEDVAMAHADALDDFDLDMLGDGDSPGPGFTPHDSAPYGALDMADFEFEQMFTDALGIDEYGGEFPANEDMPVEKILEAELAVEPKTETYVEANMGLNPSSPNDPVTNICQAADKQLFTLVEWAKRIPHFSELPLDDQVILLRAGWNELLIASFSHRSIAVKDGILLATGLHVHRNSAHSAGVGAIFDRVLTELVSKMRDMQMDKTELGCLRSVILFNPEVRGLKSAQEVELLREKVYAALEEYTRTTHPDEPGRFAKLLLRLPSLRSIGLKCLEHLFFFRLIGDVPIDTFLMEMLESPSDS

Legend:
GAL4CfEcR-DEF [1] = assay: HsRXRβ/LmUSP chimeric RXR LBDs with GAL4CfEcR-DEF and pFRLuc in NIH3T3 cells (FIGS. 9 and 10); type: cell-based, Choristoneura fumiferana; details: CfEcR in combination with chimera 11, FIG. 10
Text: This Example describes Applicants' further analysis of gene expression cassettes encoding various chimeric RXR polypeptides comprising a mouse RXRα isoform polypeptide fragment or a human RXRβ isoform polypeptide fragment and an LmUSP polypeptide fragment in mouse NIH3T3 cells.
Three individual clones of each chimeric RXR LBD of Table 1 were transfected into mouse NIH3T3 cells along with either GAL4CfEcR-DEF (switches 1.25-1.29 of Example 1; FIGS. 9 and 10) or GAL4DmEcR-DEF (switches 1.30-1.34 of Example 1; FIG. 11) and the reporter plasmid pFRLuc as described above. The transfected cells were cultured in the presence of either a) 0, 0.2, 1, or 10 μM non-steroidal ligand (FIG. 9), or b) 0, 0.2, 1, or 10 μM steroid ligand PonA or 0, 0.4, 0.2, 1, or 10 μM non-steroid ligand (FIGS. 10 and 11) for 48 hours. The reporter gene activity was measured and total RLU are shown. The number on top of each bar is the maximum fold induction for that treatment and is the mean of three replicates.

[2] = test system: AmaEcR/chimeric RXR-based switch (switch 1.22); assay: Transactivation of pFRLuc in NIH3T3 cells, AmaEcR with chimeric RXR-EF (FIG. 8); type: cell-based, Amblyomma americanum; details: switch 1.22, NIH3T3 cells
Procedure: (§1) Transfections: DNAs corresponding to the various switch constructs outlined in Example 1, specifically switches 1.1 through 1.6 were transfected into mouse NIH3T3 cells (ATCC) and human A549 cells (ATCC) as follows. […] NIH3T3 cells were grown in Dulbecco's modified Eagle medium (DMEM; LifeTechnologies) and A549 cells were grown in F12K nutrient mixture (LifeTechnologies). […] The cells were harvested and reporter activity was assayed. […] Reporter Assays: Cells were harvested 48 hours after adding ligands. […] Twenty μl of lysate were assayed. […] Thus, Applicants have made the surprising discovery that a chimeric RXR ligand binding domain may be used in place of a vertebrate RXR or an invertebrate RXR in an EcR-based inducible gene expression modulation system.
(§2) This Example describes the construction of four EcR-DEF-based gene switches comprising the DEF domains from Choristoneura fumiferana (Lepidoptera), Drosophila melanogaster (Diptera), Tenebrio molitor (Coleoptera), and Amblyomma americanum (Ixodidae) fused to a GAL4 DNA binding domain. […] The cells were harvested, lysed and luciferase reporter activity was measured in the cell lysates. […] The analysis was performed in triplicate and mean luciferase counts [total relative light units (RLU)] were determined as described above.

[3] = test system: TmEcR/chimeric RXR-based switch (switch 1.21); assay: Transactivation of pFRLuc in NIH3T3 cells, TmEcR with chimeric RXR-EF (FIG. 8); type: cell-based, Tenebrio molitor; details: switch 1.21, NIH3T3 cells
Procedure: as §1, §2

GAL4CfEcR-DEF [4] = assay: Transactivation of pFRLuc in NIH3T3 cells, VP16 RXR/USP constructs in partnership with GAL4CfEcR-DEF (FIG. 6); type: cell-based, Choristoneura fumiferana; details: for sensitivity of the switch to steroid versus non-steroid ligand: CfEcR/chimeric RXR-based switch (switch 1.13)
Procedure: as §1
as §2, with “domain. In addition, the EF domains of vertebrate RXRs, invertebrate RXRs, or invertebrate USPs from Choristoneura fumiferana USP, Drosophila melanogaster USP, Locusta migratoria USP (Orthoptera), Mus musculus RXRα (Vertebrata), a chimera between MmRXRα and LmUSP (Chimera; of switch 1.13), Amblyomma americanum RXR homolog 1 (Ixodidae), Amblyomma americanum RXR homolog 2 (Ixodidae) were fused to a VP16 activation domain.” for “domain.”, “lysates. Total fly luciferase relative light units are presented.” for “lysates.”

GAL4DmEcR-DEF = molecular target: T1, GAL4DmEcR-DEF; type: cell-based; details: NIH3T3 cells; for sensitivity of the switch to steroid versus non-steroid ligand: DmEcR/chimeric RXR-based switch (switch 1.20)
Procedure: as §1
as §2, with “domain. In addition, the EF domains of vertebrate RXRs, invertebrate RXRs, or invertebrate USPs from Choristoneura fumiferana USP, Drosophila melanogaster USP, Locusta migratoria USP (Orthoptera), Mus musculus RXRα (Vertebrata), a chimera between MmRXRα and LmUSP (Chimera; of switch 1.13), Amblyomma americanum RXR homolog 1 (Ixodidae), Amblyomma americanum RXR homolog 2 (Ixodidae) were fused to a VP16 activation domain.” for “domain.”, “lysates. Total fly luciferase relative light units are presented.” for “lysates.”

[5] = test system: GAL4CfEcR-DEF/VP16HsRXRβ-(1-8)-LmUSP-(9-12)-EF (βchimera 9; switch 1.27) gene switch; assay: Effect of 9-cis-retinoic acid as second ligand on transactivation of switch 1.27 in NIH3T3 cells (FIG. 12); type: cell-based, Choristoneura fumiferana; details: 0.04 μM non-steroid ligand, absence of 9-cis-retinoic acid
Procedure: In particular, Applicants have determined the effect of 9-cis-retinoic acid on the transactivation potential of the GAL4CfEcR-DEF/VP16HsRXRβ-(1-8)-LmUSP-(9-12)-EF (βchimera 9; switch 1.27) gene switch along with pFRLuc in NIH 3T3 cells in the presence of non-steroid (GSE) for 48 hours.
Briefly, GAL4CfEcR-DEF, pFRLuc and VP16HsRXRβ-(1-8)-LmUSP-(9-12)-EF (chimera #9) were transfected into NIH3T3 cells and the transfected cells were treated with 0, 0.04, 0.2, 1, 5 and 25 μM non-steroidal ligand (GSE) and 0, 1, 5 and 25 μM 9-cis-retinoic acid (Sigma Chemical Company). The reporter activity was measured at 48 hours after adding ligands.

Row | Molecule | response of EcR to ligand (GAL4CfEcR-DEF [1]) | sensitivity of the switch to ligand [2] | sensitivity of the switch to ligand [3] | sensitivity of the switch to steroid versus non-steroid ligand (GAL4CfEcR-DEF [4]) | sensitivity of the switch to steroid versus non-steroid ligand (GAL4DmEcR-DEF) | induction [5] | fold induction (GAL4CfEcR-DEF [4]; partner for CfEcR, FIG. 6) | fold induction (GAL4DmEcR-DEF; partner for DmEcR, FIG. 7) [fold]
1 | CC(C)CC[C@@H](O)[C@](C)(O)[C@H]1CC[C@@]2(O)C3=CC(=O)[C@@H]4C[C@@H](O)[C@@H](O)C[C@]4(C)[C@H]3CC[C@]12C [PonA, ponasterone A] | responded well to non-steroid but not to PonA | more sensitive to PonA | more sensitive to PonA | more sensitive to non-steroid than PonA | more sensitive to PonA than non-steroid |  |  | 
2 | CCc1c(OC)cccc1C(=O)NN(C(=O)c1cc(C)cc(C)c1)C(C)(C)C [non-steroid, N-(2-ethyl-3-methoxybenzoyl)-N′-(3,5-dimethylbenzoyl)-N′-tert-butylhydrazine] | responded well to non-steroid but not to PonA | less sensitive to non-steroid | less sensitive to non-steroid | more sensitive to non-steroid than PonA | more sensitive to PonA than non-steroid | very little induction |  | 
3 | B1 |  |  |  |  |  |  | 11,000 fold | 1759

Source: patent publication US8236556B2, “Method of modulating gene expression using an ecdysone receptor-based inducible gene expression system” (Intrexon Corporation, priority 2001, dated 2012)
